≈ marks a conversion by molar mass, not a printed value.
Tested on: Mycobacterium tuberculosis
Assay: Antimycobacterial activity against miltidrug-resistant Mycobacterium tuberculosis
Format: functional

## COC(=O)/C=C/C(=O)c1ccc(OC)cc1
  MIC: 0.25 to 1 µg/mL (≈ 1.14 to 4.54 µM)
